Assay results published in US20090258385A1, “METHOD OF ANALYZING CELLS BY FLOW CYTOMETRY, USE OF AN ANTIOXIDANT AND/OR FREE RADICAL-SCAVENGING AGENT IN SUCH A METHOD AND INCUBATION BUFFER COMPRISING AN ANTIOXIDANT AND/OR FREE RADICAL-SCAVENGING AGENT” (Hopitaux de Paris, priority 2008, published 2009).

Legend:
monocytes = system: monocytes
Procedure: (§1) Aliquots of human peripheral blood (containing 500,000 leukocytes) were incubated in the lysis buffer and then washed three times with 1×PBS supplemented with 2.5% FBS. The cells (500,000) were then immuno-labeled with 5 μl of each of the desired antibodies conjugated either with the desired APC tandem or with APC alone in 100 μl of incubation buffer for 20 min at room temperature, and washed three times with the PBS/FBS solution and resuspended in 200 μl of PBS/FBS solution.
(§2) The dead cells were labeled for their exclusion during analysis of the data acquired by flow cytometry using the intercalating agent 7-aminoactinomycin-D (7-AAD) from SIGMA-ALDRICH.

[1] = system: neutrophilic polynuclear cells
Procedure: as §1, §2

[2] = system: lymphocytes labeled with anti-CD45 antibody conjugated with APC tandem; experiment: percentage of decoupling of APC tandem on immunolabeled lymphocytes by flow cytometry; format: cell-based, human
Procedure: The positivity threshold was determined in the APC channel at the time T0 and related to the time T30. The percentage of “decoupled” cells was expressed as the ratio of the total number of both APC- and APC tandem-positive cells to the total APC tandem-positive lymphocytes.

[3] = system: neutrophilic polynuclear cells labeled with anti-CD45 antibody conjugated with APC tandem; experiment: percentage of decoupling of APC tandem on immunolabeled neutrophilic polynuclear cells by flow cytometry; format: cell-based, human
Description: (§3) The terms “percentage of decoupling”, “% decoupling”, “% decoupling APC vs APC-Cy7”, “% decoupling APC vs APC-H7” are used in the preceding text and in the text which follows and in the accompanying figures to denote the ratio:
(§4) [Number of cells which, although having been labeled with an APC tandem, emit fluorescence into the APC channel (and not into the channel of the APC tandem used)]/[total number of cells which have been labeled with the APC tandem, regardless of the channel into which they emit],
(§5) this ratio being multiplied by 100.
(§6) For each immunolabeling experiment, the cells were mixed and subjected to flow cytometry analysis on a Becton Dickinson FACSCanto II apparatus. From 10,000 to 50,000 events were acquired per test. The singlet cells were selected by a commonly used cell sorting procedure: intersection of the three windows (P1, P2 and P3) of the biparametric histograms.
(§7) For each type of cells, the percentage of decoupling was calculated as previously described using the BD […] software.
(§8) The results are represented in FIGS. 25 and 26.

[4] = system: monocytes labeled with anti-CD45 antibody conjugated with APC tandem; experiment: percentage of decoupling of APC tandem on immunolabeled monocytes by flow cytometry; format: cell-based, human
Description: as §3, §4, §5, §6, §7, §8

[5] = decoupling / signal impairment of APC tandem attached to beads (no cells)
Description: For that, they analyzed the stability of the APC tandem fluorochromes attached to lymphocytes and compared it to the stability of these same APC tandems attached to beads. This comparison makes it possible to determine whether or not it is the APC tandem which is degraded, regardless of the context in which it is used, or if the APC tandem is only degraded in the presence of cells.
The beads used in these experiments were beads Compbeads® from Becton Dickinson.
The lymphocytes, like the beads, were labeled with anti-CD45 antibodies conjugated with the APC-Cy7 tandem fluorochrome or with the APC-H7 tandem fluorochrome.

lymphocytes = experiment: viability and morphology of lymphocytes; format: cell-based, human
cells = experiment: toxicity to cells at the concentrations used; format: cell-based
[6] = neutrophilic polynuclear cells, H2O2

OO [H2O2, hydrogen peroxide]
effect on viability of the cells (monocytes; H2O2): without any effect on the viability | effect on viability of the cells [1, 6]: without any effect on the viability | effect on percentage of decoupling ([2]; anti-CD45 APC-Cy7, 0.01 mM H2O2, 20 to 60 minutes): does not modify | effect on percentage of decoupling ([2]; anti-CD45 APC-Cy7, 0.1 mM H2O2, 20 to 60 minutes): increased | effect on decoupling compared with lymphocytes [3, 6]: comparable role | effect on decoupling compared with lymphocytes ([4]; H2O2): comparable role | decoupling of antibodies conjugated with APC-Cy7 attached to beads ([5]; beads, over time, H2O2): could induce the decoupling

[N-]=[N+]=[N-] [NaN3, sodium azide]
effect on cell viability (monocytes; NaN3): without affecting cell viability | effect on cell viability ([1]; neutrophilic polynuclear leukocytes, NaN3): without affecting cell viability

O=C1O[C@H]([C@@H](O)CO)C(O)=C1O [vitamin C, L-ascorbic acid]
concentration above which viability and morphology are modified (monocytes): > 10 mM | concentration above which cells begin to undergo a decrease in viability ([1]; neutrophilic polynuclear cells): Above 10 mM | concentration above which cells begin to undergo morphological impairment ([1]; neutrophilic polynuclear cells): Above 4 mM | effect on percentage of decoupling over time ([2]; anti-CD45 APC-Cy7, 1 mM vitamin C, room temperature, monitored 1 hour): strongly inhibits | effect on percentage of decoupling ([2]; vitamin C 0.1 mM): only a reduced effect | concentration at which a sufficient decrease of the percentage of decoupling is obtained ([3]; neutrophilic polynuclear cells): 0.25 mM | concentration up to which the decrease of decoupling exists ([3]; neutrophilic polynuclear cells): ≤ 10 mM | effect on percentage of decoupling over time ([3]; neutrophilic polynuclear leukocytes, anti-CD45 APC-Cy7, 1 mM vitamin C, room temperature, monitored 1 hour): strongly inhibits | concentration at which a sufficient decrease of the percentage of decoupling appears [4]: 1 mM | concentration up to which the decrease of decoupling exists [4]: ≤ 10 mM | concentration above which morphology and viability are modified (lymphocytes): above 10 mM | effect on impairment of the APC tandem signal caused by H2O2 ([5]; beads Compbeads, H2O2 0 to 1 mM, 1 mM vitamin C): blocks the impairment of the signal | toxicity to cells (cells): not toxic to cells
